# Laboratory results taken from patent US20260048118A1, “COMPOSITIONS AND METHODS FOR ENHANCING TRIPLEX AND NUCLEASE-BASED GENE EDITING” (Yale University, priority 2018, published 2026).
# Legend:
# [1] = test system: bone marrow cells of Townes mice (codon 6 mutation in the beta globin gene); assay: In vivo PNA/DNA editing in Townes mice, bone marrow cells analysed by ddPCR; design: species or system mouse; conditions: 4 doses of 2 mg nanoparticles over 2 weeks, analysed after two months; 3E10 line: 1 mg 3E10 i.p. 3 h prior to each dose
# Procedure: To further validate whether 3E10 can boost gene editing in vivo, the Townes model (the same sickle cell transgenic mouse model used in Examples 3 and 4) was used. Mice were injected with a total of 4 doses of 2 mg of nanoparticles containing PNA/donor DNA over the course of 2 weeks, with the goal of correcting the codon 6 mutation in the beta globin gene. Three hours prior to each nanoparticle administration, mice were injected with 1 mg of 3E10 intraperitoneally (i.p). After two months, bone marrow cells were harvested and analyzed for editing via digital droplet PCR (ddPCR). Injections were performed […] every 3 days over the course of 2 weeks as described above.
# [2] = test system: bone marrow cells from Townes mice (beta globin gene, SCD mutation); assay: PNA/DNA editing of beta globin SCD mutation in bone marrow cells from Townes mice, ddPCR; format: cell-based, mouse; conditions: 2 mg nanoparticles per well, 48 h, 3E10 line: full length 3E10 plus nanoparticles
# Procedure: Bone marrow cells were isolated from the same transgenic mouse model of sickle cell disease described above in Example 3 (Townes model, Jackson Laboratory). Cells were treated with full length 3E10 plus 2 mg of nanoparticles per well. The nanoparticles contained the donor DNA plus tcPNA2A, designed to bind to and correct the beta globin gene at the site of the SCD mutation (A:T to T:A).
# After 48 hours, the cells were washed prior to genomic DNA isolation (SV Wizard, Promega). Freshly isolated genomic DNA was analyzed by droplet digital PCR (ddPCR) to quantify gene editing frequencies.
# [3] = test system: K562 cells carrying a BFP/GFP reporter gene; assay: CRISPR/Cas9 D10A nickase gene editing in K562 BFP/GFP reporter cells, flow cytometry; format: cell-based, human; conditions: full-length 3E10 1.5 mg/mL=10 μM, RNP plus donor DNA nucleofected, two days
# Procedure: K562 cells carrying a BFP/GFP reporter gene (Richardson, et al., Nat. Biotechnol., 34 (3): 339-44 (2016)) were transfected with CRISPR/Cas9 WT or CRISPR/Cas9 D10A nickase variant enzymes plus a guide RNA targeting the mutation site in GFP. Some samples were also treated with full-length 3E10, at a concentration of 1.5 mg/mL=10 μM.
# Cas9 protein and guide RNAs were introduced by nucleofection as a ribonucleoprotein (RNP) complex. 45 pmol of Cas9 protein (D10A nickase variant or WT, both obtained from PNA Bio) with 45 pmol of sgRNA (synthesized with Invitrogen GeneArt kit) in Cas9 nuclease buffer (NEB), were pre-incubated for 5 minutes at room temperature.
# Cells were nucleofected with the RNP complex and donor DNA having the sequence:
# The frequency of gene editing was measured two days later by flow cytometry for green fluorescence.
# [4] = test system: CD117+ cells from bone marrow and spleen of β-globin/GFP transgenic mice; assay: In vivo gene editing in CD117+ cells of β-globin/GFP transgenic mice, GFP flow cytometry; design: species or system mouse; conditions: 0.5 mg 3E10 i.p. 3 h before 2 mg PNA/DNA nanoparticles i.v.; harvested after eight days
# Procedure: To evaluate the effects of 3E10 on PNA/DNA directed gene editing in vivo, the same β-globin/GFP transgenic mouse model described above was used. Three hours prior to treatment with nanoparticles, mice were injected with 0.5 mg of 3E10 intraperitoneally (i.p.). Either the full-length 3E10 or a single-chain variable fragment (scFv) were used. Two mg of nanoparticles containing PNA/Donor DNA were then injected intravenously. After eight days, bone marrow and spleens were harvested and CD117+ cells (C-KIT+, a marker of hematopoietic stem and progenitor cells) from these tissues were isolated using a Hematopoietic Progenitor Stem Cell Enrichment Set (BD Bioscience). Following enrichment, cells were analyzed via flow cytometry for GFP expression.
# [5] = test system: SC-1 cells, a human lymphoblastoid cell line that carries the SCD mutation; assay: Beta globin editing in SC-1 cells, ddPCR; format: cell-based; conditions: 2 mg nanoparticles per well, 48 h, 3E10 line: 3E10 prior to nanoparticles
# Procedure: SC-1 cells, a human lymphoblastoid cell line that carries the SCD mutation, were treated with 2 mg of nanoparticles per well with or without 3E10. After 48 hours, the cells were washed prior to genomic DNA isolation (SV Wizard, Promega). Freshly isolated genomic DNA was analyzed by droplet digital PCR (ddPCR) for editing frequencies.
substance,measurement,setting,value
3E10: cell-penetrating monoclonal anti-DNA antibody that binds to and inhibits RAD51; produced by ATCC No. PTA 2439 hybridoma,average editing frequency in bone marrow cells (ddPCR),[1],2.1%
same,gene editing frequency (ddPCR),[2],more than 8%
same,effect on gene editing by nickase Cas9 D10A (green fluorescence),[3],substantially boosted gene editing
same,gene editing in bone marrow CD117+ cells vs nanoparticles alone,[4],higher levels of gene editing
same,gene editing in spleen CD117+ cells vs nanoparticles alone,[4],higher levels of gene editing
same,gene editing frequency (ddPCR),[5],17%
